From the supplement of paper PMC6045584

Compound: CC(=O)c1c(C)c2cnc(Nc3ccc(N4CCNCC4)cn3)nc2n(C2CCCC2)c1=O
Assay: area under dose-response curve of surviving fraction (unscaled, Aref=0) (surviving fraction x log10(nM)); higher = more resistant
Settings: exposure time: 5 days; dose range 0.5-1000 nM
In short: (§1)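 Three screens per tumour cell line were run in 384-well plates at eight inhibitor concentrations from 0.5 to 1000 nM over five days. Surviving fractions, from CellTiter-Glo luminescence normalised to DMSO-only wells, were fitted with 3-parameter logistic curves in the drc R package. The reported area under the curve is the unscaled activity area. It spans log10 dose, and Aref is 0.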

Test System	area under dose-response curve
HOSMNG BONE	3.41
HSSYII SYNOVIAL	3.04
HU09 BONE	3.47
HUO3N1 BONE	3.42
JIMT1 BREAST	3.35
LNCAP PROSTATE	3.12
MDAMB134 BREAST	3.84
MDAMB231 BREAST	3.24
MDAMB361 BREAST	2.85
MDAMB436 BREAST	3.02
MDAMB468 BREAST	3.48
MHM BONE	3.35
NCIH441 LUNG	3.59
NY BONE	3.46
OS25HAL BONE	3.42
OSHN BONE	3.62
SKBR3 BREAST	3.09
SUM149.B1*.S BREAST	3.76

Compound: C[C@]1(O)C[C@@H](c2nc(-c3ccc4ccc(-c5ccccc5)nc4c3)c3c(N)nccn32)C1 [OSI-906]
Assay: as above
Settings: exposure time: 5 days; dose range 0.5-1000 nM
In short: as §1

Test System	area under dose-response curve
22RV1 PROSTATE	3.1
93VU HEADNECK	2.69
A549 LUNG	3.1
CAL51 BREAST	3.16
CAL72 BONE	3.22
CAL120 BREAST	3
CASKI CERVIX	2.98
COLO320DM LARGE INTESTINE	3
DU4475 BREAST	2.23
G292 BONE	2.59
H23 LUNG	2.81
HCC38 BREAST	3.25
HCC1806 BREAST	2.83
HOS BONE	3.06
HOSMNG BONE	3.13
HSSYII SYNOVIAL	2.6

Test System	area under dose-response curve
HU09 BONE	2.66
HUO3N1 BONE	2.99
JIMT1 BREAST	3.15
LNCAP PROSTATE	3.5
MDAMB134 BREAST	2.32
MDAMB231 BREAST	3.07
MDAMB361 BREAST	2.51
MDAMB436 BREAST	2.93
MDAMB468 BREAST	3.08
MHM BONE	3.03
NCIH441 LUNG	3.21
NY BONE	3.15
OS25HAL BONE	2.57
OSHN BONE	2.89
SKBR3 BREAST	2.71
SUM149.B1*.S BREAST	2.99

Compound: COc1cc2ncnc(Nc3ccc(F)c(Cl)c3)c2cc1OCCCN1CCOCC1 [GEFITINIB]
Assay: as above
Settings: exposure time: 5 days; dose range 0.5-1000 nM
In short: as §1

Test System	area under dose-response curve
22RV1 PROSTATE	3.34
93VU HEADNECK	2.74
A549 LUNG	3.46
CAL51 BREAST	3.42
CAL72 BONE	3.5
CAL120 BREAST	3.22
CASKI CERVIX	2.15
COLO320DM LARGE INTESTINE	4.07
DU4475 BREAST	3.01
G292 BONE	3.36
H23 LUNG	2.37
HCC38 BREAST	3.99
HCC1806 BREAST	2.94
HOS BONE	3.42
HOSMNG BONE	3.45
HSSYII SYNOVIAL	3.35

Test System	area under dose-response curve
HU09 BONE	3.37
HUO3N1 BONE	3.38
JIMT1 BREAST	3.29
LNCAP PROSTATE	3.19
MDAMB134 BREAST	3.62
MDAMB231 BREAST	3.4
MDAMB361 BREAST	2.9
MDAMB436 BREAST	3.12
MDAMB468 BREAST	3.08
MHM BONE	3.37
NCIH441 LUNG	3.59
NY BONE	3.43
OS25HAL BONE	3.55
OSHN BONE	3.72
SKBR3 BREAST	2.78
SUM149.B1*.S BREAST	3.6

Compound: COCC[n+]1c2c(n(Cc3cnccn3)c1C)C(=O)c1ccccc1C2=O [YM155]
Assay: as above
Settings: exposure time: 5 days; dose range 0.5-1000 nM
In short: as §1

Test System	area under dose-response curve
22RV1 PROSTATE	1.58
93VU HEADNECK	2.62
A549 LUNG	1.83
CAL51 BREAST	0.772
CAL72 BONE	1.02
CAL120 BREAST	0.732
CASKI CERVIX	1.37
COLO320DM LARGE INTESTINE	2.37
DU4475 BREAST	1.66
G292 BONE	1.47
H23 LUNG	0.646
HCC38 BREAST	1.05
HCC1806 BREAST	1.02
HOS BONE	0.418
HOSMNG BONE	1.76
HSSYII SYNOVIAL	0.716

Test System	area under dose-response curve
HU09 BONE	2.13
HUO3N1 BONE	2.22
JIMT1 BREAST	1.39
LNCAP PROSTATE	1.82
MDAMB134 BREAST	2.43
MDAMB231 BREAST	0.671
MDAMB361 BREAST	1.61
MDAMB436 BREAST	1.42
MDAMB468 BREAST	0.87
MHM BONE	1.94
NCIH441 LUNG	1.12
NY BONE	2.96
OS25HAL BONE	0.935
OSHN BONE	0.946
SKBR3 BREAST	1.36
SUM149.B1*.S BREAST	1.66

Compound: Cc1ccc(-c2cc(C(F)(F)F)nn2-c2ccc(S(N)(=O)=O)cc2)cc1 [CELECOXIB]
Assay: as above
Settings: exposure time: 5 days; dose range 0.5-1000 nM
In short: as §1

Test System	area under dose-response curve
93VU HEADNECK	3.54
A549 LUNG	3.51
CAL51 BREAST	3.45
CAL72 BONE	3.49
CAL120 BREAST	3.26
CASKI CERVIX	3.15
COLO320DM LARGE INTESTINE	3.75
DU4475 BREAST	2.98
G292 BONE	3.34
H23 LUNG	3.59
HCC38 BREAST	4.1
HCC1806 BREAST	3.65
HOS BONE	3.42
HOSMNG BONE	3.18
HSSYII SYNOVIAL	3.39
HU09 BONE	3.26
JIMT1 BREAST	3.51
LNCAP PROSTATE	3.19
MDAMB134 BREAST	3.59
MDAMB231 BREAST	3.3
MDAMB361 BREAST	2.93
MDAMB436 BREAST	3.4
MDAMB468 BREAST	3.83
MHM BONE	3.42
NCIH441 LUNG	3.66
NY BONE	3.48
OS25HAL BONE	3.54
OSHN BONE	3.7
SKBR3 BREAST	3.44
SUM149.B1*.S BREAST	3.73

Compound: CC(=O)NCC(=O)N1[C@@H]2CC[C@H]1c1ccc(Nc3ncc(C(F)(F)F)c(NC4CCC4)n3)cc12
Assay: as above
Settings: exposure time: 5 days; dose range 0.5-1000 nM
In short: as §1

Test System	area under dose-response curve
22RV1 PROSTATE	2.6
93VU HEADNECK	2.61
A549 LUNG	2.54
CAL51 BREAST	2.15
CAL72 BONE	2.9
CAL120 BREAST	2.64
CASKI CERVIX	2.28
COLO320DM LARGE INTESTINE	2.35
DU4475 BREAST	1.69
G292 BONE	2.24
H23 LUNG	2.73
HCC38 BREAST	2.71
HCC1806 BREAST	2.62
HOS BONE	2.69
HOSMNG BONE	2.83
HSSYII SYNOVIAL	1.97

Test System	area under dose-response curve
HU09 BONE	2.44
HUO3N1 BONE	3.12
JIMT1 BREAST	2.96
LNCAP PROSTATE	2.3
MDAMB134 BREAST	3.57
MDAMB231 BREAST	2.51
MDAMB361 BREAST	3.12
MDAMB436 BREAST	2.63
MDAMB468 BREAST	2.44
MHM BONE	3.12
NCIH441 LUNG	2.94
NY BONE	2.51
OS25HAL BONE	2.55
OSHN BONE	2.43
SUM149.B1*.S BREAST	3.06

Compound: CC(=O)O[C@H]1C(=O)[C@@]2(C)[C@H]([C@H](OC(=O)c3ccccc3)[C@]3(O)C[C@H](OC(=O)[C@H](O)[C@@H](NC(=O)c4ccccc4)c4ccccc4)C(C)=C1C3(C)C)[C@]1(OC(C)=O)CO[C@@H]1C[C@@H]2O [PACLITAXEL]
Assay: as above
Settings: exposure time: 5 days; dose range 0.5-1000 nM
In short: as §1

Test System	area under dose-response curve
22RV1 PROSTATE	0.962
93VU HEADNECK	1.04
A549 LUNG	1.32
CAL51 BREAST	0.546
CAL72 BONE	0.96
CAL120 BREAST	0.641
CASKI CERVIX	0.492
COLO320DM LARGE INTESTINE	2.1
DU4475 BREAST	0.884
G292 BONE	0.722
H23 LUNG	0.876
HCC38 BREAST	0.609
HCC1806 BREAST	0.267
HOS BONE	0.728
HOSMNG BONE	1.85
HSSYII SYNOVIAL	0.524

Test System	area under dose-response curve
HU09 BONE	0.426
HUO3N1 BONE	0.938
JIMT1 BREAST	0.48
LNCAP PROSTATE	0.354
MDAMB134 BREAST	2.33
MDAMB231 BREAST	0.557
MDAMB361 BREAST	2.36
MDAMB436 BREAST	1.01
MDAMB468 BREAST	0.701
MHM BONE	1.43
NCIH441 LUNG	1.56
NY BONE	0.337
OS25HAL BONE	1.01
OSHN BONE	0.555
SKBR3 BREAST	0.673
SUM149.B1*.S BREAST	1.21

Compound: O=C(O)C1(C(=O)O)CCC1.[NH2-].[NH2-].[Pt+2] [CARBOPLATIN]
Assay: as above
Settings: exposure time: 5 days; dose range 0.5-1000 nM
In short: as §1

Test System	area under dose-response curve
22RV1 PROSTATE	3.48
93VU HEADNECK	4.03
A549 LUNG	3.54
CAL51 BREAST	3.33
CAL72 BONE	3.49
CAL120 BREAST	3.13
CASKI CERVIX	3.19
COLO320DM LARGE INTESTINE	4.1
DU4475 BREAST	3.22
G292 BONE	3.42
H23 LUNG	3.55
HCC38 BREAST	3.4
HCC1806 BREAST	3.64
HOS BONE	3.54
HOSMNG BONE	3.65
HSSYII SYNOVIAL	3.19

Test System	area under dose-response curve
HU09 BONE	3.58
HUO3N1 BONE	3.59
JIMT1 BREAST	3.31
LNCAP PROSTATE	3.35
MDAMB134 BREAST	3.15
MDAMB231 BREAST	3.32
MDAMB361 BREAST	2.64
MDAMB436 BREAST	3.18
MDAMB468 BREAST	3.37
MHM BONE	3.46
NCIH441 LUNG	3.51
NY BONE	3.46
OS25HAL BONE	3.56
OSHN BONE	3.65
SKBR3 BREAST	3.44
SUM149.B1*.S BREAST	3.85

Compound: CC[C@@]1(O)C(=O)OCc2c1cc1n(c2=O)Cc2cc3ccccc3nc2-1 [CAMPTOTHECIN]
Assay: as above
Settings: exposure time: 5 days; dose range 0.5-1000 nM
In short: as §1

Test System	area under dose-response curve
22RV1 PROSTATE	1.47
93VU HEADNECK	1.8
A549 LUNG	1.62
CAL51 BREAST	1.36
CAL72 BONE	1.67
CAL120 BREAST	1.05
CASKI CERVIX	1.07
COLO320DM LARGE INTESTINE	1.14
DU4475 BREAST	0.671
G292 BONE	1.35
H23 LUNG	1.1
HCC38 BREAST	1.16
HCC1806 BREAST	0.682
HOS BONE	1.25
HOSMNG BONE	1.82
HSSYII SYNOVIAL	0.531

Test System	area under dose-response curve
HU09 BONE	0.747
HUO3N1 BONE	1.37
JIMT1 BREAST	1.8
LNCAP PROSTATE	0.813
MDAMB134 BREAST	2.11
MDAMB231 BREAST	1.62
MDAMB361 BREAST	2.14
MDAMB436 BREAST	1.06
MDAMB468 BREAST	1.41
MHM BONE	2.08
NCIH441 LUNG	1.41
NY BONE	1.16
OS25HAL BONE	0.945
OSHN BONE	0.918
SKBR3 BREAST	1.42
